From patent US7232570B2, “ERAAP modulators regulate immune responses” (Regents of the University of California, priority 2002, dated 2007)
Each block holds one compound with its values, some of them ahead of it.

Tests used:
human source ERAAP = human source ERAAP (Homo sapiens, UniProt Q9NZ08); experiment: ERAAP modulation/selectivity screen against a panel of other aminopeptidases; type: biochemical; conditions: preferential inhibition of ERAAP compared with a panel of other aminopeptidases
Description: The targeted ERAAP is a well-known, naturally-occurring aminopeptidase, which has been biochemically characterized and cloned in a wide variety of animal species, including mice, rats and humans. […] Note that the same enzyme has been called “A-LAP” (adipocyte-derived leucine aminopeptidase) by others (e.g. Hattori et al., supra).
Protocols for delivering the inhibitor and effective dosages are known in the art and/or readily determined empirically by those skilled in the art guided by the selected inhibitor and the present disclosure. […] For example, the well-characterized structural interaction between aminothiol inhibitors of aminopeptidases (e.g. Bienvenue et al., J Inorgan Biochem 2000, 78, 43-54) were exploited to select ERAAP selective aminothiol-type inhibitors. In this manner, we screened panels of compounds and identified a number of ERAAP-selective aminothiol inhibitors, including leucine thiol and lysinethiol. ERAAP modulation assays may be performed by any convenient protocol, including those described by us in Serwold et al. (2001, supra), those of Hattori et al. (2000, supra), etc. […] Alternative aminopeptidase inhibitor pharmacophores for ERAAP selectivity and method compatibility screens include L-bis (1-thio-2-amino-4-methylpentane) dihydrochloride (TAMP) and L-bis (1-thio-2-amino-3-phenylpropane) dihydrochloride (TAPP) (see, e.g. Weiss et al., Res Comm Chem Path Pharmacol 1988, 62, 113-2) and alpha-thiolbestatins (e.g. Ocain et al., J Med Chem 1988 November;31(11):2193-9).

Sprague-Dawley rats = experiment: Phenotypic and functional indicia of immunosuppression in treated rats; type: in vivo
[1] = system: antigen presenting cells (APC); experiment: APC assays with peripheral blood leukocytes from aminothiol-treated rats; type: in vivo, Sprague-Dawley rats; conditions: peripheral blood leukocytes of treated rats as APC for T cells specific for K^b or D^b presented peptides
[2] = biological target: T1, predominant aminopeptidase activity present in the ER (ERAAP) (Mus musculus, UniProt Q9EQH2); experiment: Aminopeptidase activity of solubilized microsomes, colorimetric substrate leucine-p-nitroanilide; type: biochemical, mice; conditions: ion exchange chromatography of solubilized microsomes from mouse liver and spleen
T1 construct: Microsomes from liver and spleens of mice were solubilized in detergent; from tissue; host or cells: mouse liver and spleen microsomes
T1 sequence (Q9EQH2 1-930): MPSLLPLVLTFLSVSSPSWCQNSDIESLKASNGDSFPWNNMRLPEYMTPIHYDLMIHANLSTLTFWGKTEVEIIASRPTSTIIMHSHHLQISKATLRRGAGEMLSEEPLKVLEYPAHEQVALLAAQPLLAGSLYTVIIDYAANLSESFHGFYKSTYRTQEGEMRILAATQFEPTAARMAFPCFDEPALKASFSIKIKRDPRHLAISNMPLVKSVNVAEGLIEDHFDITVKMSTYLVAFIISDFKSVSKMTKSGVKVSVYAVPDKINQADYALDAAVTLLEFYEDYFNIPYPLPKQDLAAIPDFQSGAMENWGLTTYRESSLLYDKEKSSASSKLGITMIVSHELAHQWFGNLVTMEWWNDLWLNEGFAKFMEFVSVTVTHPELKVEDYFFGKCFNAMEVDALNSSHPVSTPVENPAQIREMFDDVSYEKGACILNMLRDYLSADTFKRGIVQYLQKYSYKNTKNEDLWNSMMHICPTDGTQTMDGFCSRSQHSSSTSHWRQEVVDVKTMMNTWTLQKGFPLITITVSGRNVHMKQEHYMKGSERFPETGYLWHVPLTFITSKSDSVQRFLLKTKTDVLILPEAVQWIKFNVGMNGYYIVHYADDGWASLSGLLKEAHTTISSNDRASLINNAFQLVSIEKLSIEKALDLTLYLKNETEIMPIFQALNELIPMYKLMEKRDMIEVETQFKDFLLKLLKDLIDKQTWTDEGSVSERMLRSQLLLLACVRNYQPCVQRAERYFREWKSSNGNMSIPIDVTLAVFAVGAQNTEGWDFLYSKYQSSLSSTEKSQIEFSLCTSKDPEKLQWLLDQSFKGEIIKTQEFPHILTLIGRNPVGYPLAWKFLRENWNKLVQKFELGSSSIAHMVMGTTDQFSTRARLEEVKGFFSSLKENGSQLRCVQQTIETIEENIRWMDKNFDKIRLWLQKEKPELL
Description: To identify this protease, we biochemically purified the predominant aminopeptidase activity present in the ER. Microsomes from liver and spleens of mice were solubilized in detergent and the aminopeptidase activity was monitored by the colorimetric substrate leucine-p-nitroanilide (9). […] This activity was precipitated from solubilized microsomes by ammonium sulfate, resolublized and fractionated by size exclusion, ion exchange and hydrophobic interaction chromatographies. The highly enriched fractions from the final purification step contained a major band of approximately 100 kD on a coommassie blue stained SDS-PAGE gel. This band was subjected to in-gel trypsin digestion and the peptides were analyzed by MALDI-TOF mass spectrometry; the resulting tryptic peptide fingerprint was used to search the NCBI database (10). In two independent experiments 25 masses matched the predicted output of trypsin digested murine adipocyte-derived leucine aminopeptidase (Genbank Accession # AF227511). This assignment was further confirmed with the amino acid sequences of four peptides determined by high energy CID MS-MS analysis (11). This 930 amino acid murine aminopeptidase and its human and rat homologues are known by a variety of different names (12). […]

ERAAP = ERAAP expression in cultured fibroblasts treated with interferon gamma; type: cell-based
Experimental: MHC I molecules are expressed by virtually all tissues. To determine whether ERAAP expression correlated with that of MHC I, seven different mouse tissues were analyzed by western blot for expression of ERAAP, MHC I and the housekeeping proteins actin and gp96 as controls. ERAAP was detected in all tissues analyzed but its expression was highest in the liver, lung, spleen and thymus, the same tissues which also expressed the highest levels of MHC I molecules. Furthermore, the expression of ERAAP was increased approximately 10-fold by treatment of cultured fibroblasts with the inflammatory cytokine interferon gamma, which also upregulates many other key components in the antigen processing pathway (17).

Sequence of human source ERAAP (Q9NZ08 whole entry): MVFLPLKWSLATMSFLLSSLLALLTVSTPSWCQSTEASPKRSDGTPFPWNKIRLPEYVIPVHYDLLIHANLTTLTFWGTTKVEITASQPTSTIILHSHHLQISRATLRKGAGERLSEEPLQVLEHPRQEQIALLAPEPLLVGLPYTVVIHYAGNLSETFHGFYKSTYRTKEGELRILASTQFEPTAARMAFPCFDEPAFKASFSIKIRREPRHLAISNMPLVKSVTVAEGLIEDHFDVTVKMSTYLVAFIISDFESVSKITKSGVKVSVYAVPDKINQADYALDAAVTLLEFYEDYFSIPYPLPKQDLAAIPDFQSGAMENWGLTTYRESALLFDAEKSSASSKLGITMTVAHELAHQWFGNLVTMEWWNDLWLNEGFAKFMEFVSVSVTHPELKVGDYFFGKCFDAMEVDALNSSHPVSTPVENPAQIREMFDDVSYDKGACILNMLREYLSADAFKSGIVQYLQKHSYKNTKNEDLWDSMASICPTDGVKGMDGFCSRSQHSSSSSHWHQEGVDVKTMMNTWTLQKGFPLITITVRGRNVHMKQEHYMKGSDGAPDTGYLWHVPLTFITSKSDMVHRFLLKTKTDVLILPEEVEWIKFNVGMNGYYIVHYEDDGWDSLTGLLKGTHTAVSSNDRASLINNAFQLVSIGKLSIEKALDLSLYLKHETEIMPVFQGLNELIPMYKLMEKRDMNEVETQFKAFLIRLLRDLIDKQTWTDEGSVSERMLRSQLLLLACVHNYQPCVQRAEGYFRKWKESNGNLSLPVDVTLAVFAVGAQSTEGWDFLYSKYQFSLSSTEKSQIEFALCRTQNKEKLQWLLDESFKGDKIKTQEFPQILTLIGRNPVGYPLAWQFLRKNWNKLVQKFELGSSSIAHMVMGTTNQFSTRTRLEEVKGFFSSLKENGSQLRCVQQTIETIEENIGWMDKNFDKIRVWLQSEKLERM

ERAAP selectivity (human source ERAAP): ERAAP-selective
Compound: CC[C@H](C)[C@H](N)CS [isoleucinethiol]

Compound: CC(C)C[C@H](N)CS [leucinethiol]
ERAAP selectivity (human source ERAAP): ERAAP-selective | spleen and thymus volume (Sprague-Dawley rats): reduced | graft-host response (Sprague-Dawley rats; e.g. skin graft assays): reduced | APC function [1]: pronounced inhibition | predominant aminopeptidase activity peak [2]: blocked

ERAAP selectivity (human source ERAAP): ERAAP-selective
Compound: NCCCC[C@H](N)CS [lysinethiol]

Compound: interferon gamma: inflammatory cytokine
increase of ERAAP expression (ERAAP): approximately 10 fold
